How the values were obtained:
[1] = Fluoride ion sensing: fluorescence and absorption spectra of the probes with NaF; type: physicochemical; details: probe alone, before F^−
Description: The procedure for fluoride ion sensing is described. Stock solutions of inventive compounds R1-R3 (1 mM) are prepared in DMSO. The test solutions of the inventive compounds R1-R3 (10 μM) in […] DMSO-HEPES solution (3/2, v/v, 10 mM HEPES, pH=7.2) are prepared by placing stock solutions in 10-mL volumetric flask, and diluting with buffer solution. The resulting solutions are shaken well and incubated at room temperature for 50 minutes before recording the spectra.
Sodium fluoride (NaF) is used as a fluoride source for the fluoride ion sensing test. Stock solution of NaF (1 mM) is prepared in deionized water. The test solutions of the inventive compounds R1-R3 (10 μM) with NaF (500 μM) are prepared by placing stock solutions in 10-mL volumetric flask, and diluting with buffer solution. The resulting solutions are shaken well and incubated at room temperature for 50 minutes before recording the spectra.
UV-visible spectra are recorded on a Shimadzu UV-2550 spectrometer. Steady-state emission experiments at room temperature are measured on an Edinburgh instrument FLS-920 spectrometer with a Xe lamp as an excitation source. Unless otherwise noted, for all measurements, the excitation wavelength is 620 nm and the emission wavelength is collected from 640 to 780 nm.
The color changed from colorless to blue, which can be visible by naked eyes. The reaction mechanism is further confirmed by HR-MS analysis in aqueous solution. After treated with NaF, a new peak is appeared in the solution with almost the same HR-MS data for the three compounds (R1: 284.1214; R2: 284.1202; R3: 284.1209), which is nearly identical to the theoretical molecular mass of the MB ([M−Cl^−]^+=284.1216).

[2] = Fluorescence intensity change with pH variation; type: physicochemical; details: 10 μM, before NaF
From the text: Fluorescence change of inventive compound R3 before/after treated with NaF under different pH levels are described.

Row | Compound | absorption and emission in visible range [1] | pH range in which the compound remains stable [2]
1 | CN(C)c1ccc2c(c1)Sc1cc(N(C)C)ccc1N2C(=O)OCc1ccc(O[Si](C)(C)C(C)(C)C)cc1 [Compound R3, 4-((tert-butyldimethylsilyl)oxy)benzyl 3,7-bis(dimethylamino)-10H-phenothiazine-10-carboxylate] | no absorption and emission in visible range | 2-12
2 | CN(C)c1ccc2c(c1)Sc1cc(N(C)C)ccc1N2C(=O)OCc1ccc(O[Si](c2ccccc2)(c2ccccc2)C(C)(C)C)cc1 [Compound R1, 4-((tert-butyldiphenylsilyl)oxy)benzyl 3,7-bis(dimethylamino)-10H-phenothiazine-10-carboxylate] | no absorption and emission in visible range | –
3 | CC(C)[Si](Oc1ccc(COC(=O)N2c3ccc(N(C)C)cc3Sc3cc(N(C)C)ccc32)cc1)(C(C)C)C(C)C [Compound R2, 4-((triisopropylsilyl)oxy)benzyl 3,7-bis(dimethylamino)-10H-phenothiazine-10-carboxylate] | no absorption and emission in visible range | –
